Assay results reported in patent publication EP0984975B1, “MULTICYCLIC ERYTHROMYCIN DERIVATIVES” (Abbott Laboratories, priority 1997, dated 1998).

Legend:
Assay in all cases: In vitro assay of antibacterial activity (agar dilution MIC)
Format in all cases: cell-based
M[…] ATCC 4698 = details: MICROCOCCUS LUTEUS ATCC 4698; BHI agar, 35-37 °C for 20 to 24 hours; unit assumed
Description: (§1) Representative compounds of the present invention were assayed in vitro for antibacterial activity as follows: Twelve petri dishes containing successive aqueous dilutions of the test compound mixed with 10 mL of sterilized Brain Heart Infusion (BHI) agar (Difco 0418-01-5) were prepared. Each plate was inoculated with 1:100 (or 1:10 for slow-growing strains, such as Micrococcus and Streptococcus) dilutions of up to 32 different microorganisms, using a Steers replicator block. The inoculated plates were incubated at 35-37 °C for 20 to 24 hours. In addition, a control plate, using BHI agar containing no test compound, was prepared and incubated at the beginning and end of each test.
(§2) An additional plate containing a compound having known susceptibility patterns for the organisms being tested and belonging to the same antibiotic class as the test compound was also prepared and incubated as a further control, as well as to provide test-to-test comparability. Erythromycin A was used for this purpose.
(§3) After incubation, each plate was visually inspected. The minimum inhibitory concentration (MIC) was defined as the lowest concentration of drug yielding no growth, a slight haze, or sparsely isolated colonies on the inoculum spot as compared to the growth control.

[1] = tested on: STAPHYLOCOCCUS AUREUS ATCC 6538P; details: BHI agar, 35-37 °C for 20 to 24 hours, unit assumed
Description: as §1, §2, §3

[2] = tested on: STREPTOCOCCUS PYOGENES PIU 2548; details: STREPTOCOCCUS PYOGENES PIU 2548; BHI agar, 35-37 °C for 20 to 24 hours; unit assumed
Description: as §1, §2, §3

[3] = tested on: STAPHYLOCOCCUS AUREUS A-5278; details: BHI agar, 35-37 °C for 20 to 24 hours, unit assumed
Description: as §1, §2, §3

[4] = tested on: STAPHYLOCOCCUS AUREUS NCTC10649M; details: BHI agar, 35-37 °C for 20 to 24 hours, unit assumed
Description: as §1, §2, §3

ESCHERICHIA COLI SS = details: ESCHERICHIA COLI SS; BHI agar, 35-37 °C for 20 to 24 hours; unit assumed
Description: as §1, §2, §3

STR[…] 508 = details: STREPTOCOCCUS AGALACTIAE CMX 508; BHI agar, 35-37 °C for 20 to 24 hours; unit assumed
Description: as §1, §2, §3

ESCHERICHIA COLI DC-2 = details: BHI agar, 35-37 °C for 20 to 24 hours, unit assumed
Description: as §1, §2, §3

CANDIDA ALBICANS CCH 442 = details: BHI agar, 35-37 °C for 20 to 24 hours, unit assumed
Description: as §1, §2, §3

[5] = tested on: STREPTOCOCCUS BOVIS A-5169; details: STREPTOCOCCUS BOVIS A-5169; BHI agar, 35-37 °C for 20 to 24 hours; unit assumed
Description: as §1, §2, §3

[6] = tested on: STREPTOCOCCUS PYOGENES EES61; details: STREPTOCOCCUS PYOGENES EES61; BHI agar, 35-37 °C for 20 to 24 hours; unit assumed
Description: as §1, §2, §3

EN[…] ATCC 8043 = details: ENTEROCOCCUS FAECIUM ATCC 8043; BHI agar, 35-37 °C for 20 to 24 hours; unit assumed
Description: as §1, §2, §3

[7] = tested on: STAPHYLOCOCCUS AUREUS CMX 642A; details: BHI agar, 35-37 °C for 20 to 24 hours, unit assumed
Description: as §1, §2, §3

[8] = tested on: STAPHYLOCOCCUS EPIDERMIDIS 3519; details: STAPHYLOCOCCUS EPIDERMIDIS 3519; BHI agar, 35-37 °C for 20 to 24 hours; unit assumed
Description: as §1, §2, §3

M[…] ATCC 9341 = details: MICROCOCCUS LUTEUS ATCC 9341; BHI agar, 35-37 °C for 20 to 24 hours; unit assumed
Description: as §1, §2, §3

[9] = tested on: STAPHYLOCOCCUS AUREUS CMX 553; details: BHI agar, 35-37 °C for 20 to 24 hours, unit assumed
Description: as §1, §2, §3

ESCHERICHIA COLI JUHL = details: ESCHERICHIA COLI JUHL; BHI agar, 35-37 °C for 20 to 24 hours; unit assumed
Description: as §1, §2, §3

N. ASTEROIDES ATCC 9970 = details: BHI agar, 35-37 °C for 20 to 24 hours, unit assumed
Description: as §1, §2, §3

[10] = tested on: STAPHYLOCOCCUS AUREUS A5177; details: BHI agar, 35-37 °C for 20 to 24 hours, unit assumed
Description: as §1, §2, §3

[11] = tested on: STAPHYLOCOCCUS AUREUS 1775; details: BHI agar, 35-37 °C for 20 to 24 hours, unit assumed
Description: as §1, §2, §3

[12] = tested on: STREPTOCOCCUS PYOGENES 930; details: STREPTOCOCCUS PYOGENES 930; BHI agar, 35-37 °C for 20 to 24 hours; unit assumed
Description: as §1, §2, §3

[13] = tested on: MYCOBACTERIUM SMEGMATIS ATCC 114; details: MYCOBACTERIUM SMEGMATIS ATCC 114; BHI agar, 35-37 °C for 20 to 24 hours; unit assumed
Description: as §1, §2, §3

Compound	Antibacterial Activity (MIC's) (M[…] ATCC 4698) [µg/mL]	Antibacterial Activity (MIC's) [1] [µg/mL]	Antibacterial Activity (MIC's) [2] [µg/mL]	Antibacterial Activity (MIC's) [3] [µg/mL]	Antibacterial Activity (MIC's) [4] [µg/mL]	Antibacterial Activity (MIC's) (ESCHERICHIA COLI SS) [µg/mL]	Antibacterial Activity (MIC's) (STR[…] 508) [µg/mL]	Antibacterial Activity (MIC's) (ESCHERICHIA COLI DC-2) [µg/mL]	Antibacterial Activity (MIC's) (CANDIDA ALBICANS CCH 442) [µg/mL]	Antibacterial Activity (MIC's) [5] [µg/mL]	Antibacterial Activity (MIC's) [6] [µg/mL]	Antibacterial Activity (MIC's) (EN[…] ATCC 8043) [µg/mL]	Antibacterial Activity (MIC's) [7] [µg/mL]	Antibacterial Activity (MIC's) [8] [µg/mL]	Antibacterial Activity (MIC's) (M[…] ATCC 9341) [µg/mL]	Antibacterial Activity (MIC's) [9] [µg/mL]	Antibacterial Activity (MIC's) (ESCHERICHIA COLI JUHL) [µg/mL]	Antibacterial Activity (MIC's) (N. ASTEROIDES ATCC 9970) [µg/mL]	Antibacterial Activity (MIC's) [12] [µg/mL]	Antibacterial Activity (MIC's) [13] [µg/mL]	other results
CC[C@H]1OC(=O)[C@H](C)C(=O)[C@H](C)[C@@H](O[C@@H]2O[C@H](C)C[C@H](N(C)C)[C@H]2O)[C@](C)(OC)C[C@@H](C)C2=Nc3cccnc3N3C(=O)O[C@@]1(C)[C@H]3[C@H]2C [Ex 7, Compound of Formula (II): R^1 is methoxy; R^2 is H, R^3 is absent, the double bond is present, B, D and E are H, and Y and Z taken together with the atom to which they are attached form an oxo group]	0.39	0.39	0.39	> 100	0.39	0.78	0.05	> 100	> 100	0.05	0.05	0.1	0.39	0.39	0.05	0.39	> 100	0.1	> 100	3.1	Antibacterial Activity (MIC's) [10]: 0.39 µg/mL; Antibacterial Activity (MIC's) [11]: > 100 µg/mL
CC[C@H]1OC(=O)[C@H](C)C(=O)[C@H](C)[C@@H](O[C@@H]2O[C@H](C)C[C@H](N(C)C)[C@H]2O)[C@](C)(OC)C[C@@H](C)C2=Nc3cc(C)ccc3N3C(=O)O[C@@]1(C)[C@H]3[C@H]2C [Ex 4, Compound of Formula (I): R^1 is methoxy; R^2 is H, R^3 is absent, the double bond is present, A, B, and E are H, D is methyl, and Y and Z taken together with the atom to which they are attached form an oxo group]	0.2	0.78	0.2	> 100	0.78	0.2	0.01	> 100	> 100	0.01	0.01		0.78		0.1		> 100	0.1	> 100	100	Antibacterial Activity (MIC's) [10]: 0.78 µg/mL
CC[C@H]1OC(=O)[C@H](C)C(=O)[C@H](C)[C@@H](O[C@@H]2O[C@H](C)C[C@H](N(C)C)[C@H]2O)[C@](C)(OC)C[C@@H](C)C2=Nc3ccccc3N3C(=O)O[C@@]1(C)[C@H]3[C@H]2C [Ex 2, Compound of Formula (I): R^1 is methoxy: R^2 is H, R^3 is absent, the double bond is present, A, B, D and E are H, and Y and Z taken together with the atom to which they are attached form an oxo group]	0.78	0.39	0.39	> 100	0.39	1.56	0.1	> 100	> 100	0.1	0.1	0.2	0.39	0.39	0.1	0.39	> 100	0.39	> 100	3.1	Antibacterial Activity (MIC's) [10]: 0.39 µg/mL; Antibacterial Activity (MIC's) [11]: > 100 µg/mL
CC[C@H]1OC(=O)[C@H](C)C(=O)[C@H](C)[C@@H](O[C@@H]2O[C@H](C)C[C@H](N(C)C)[C@H]2O)[C@](C)(OC)C[C@@H](C)C2=Nc3cc(OC)ccc3N3C(=O)O[C@@]1(C)[C@H]3[C@H]2C [Ex 5, Compound of Formula (I): R^1 is methoxy; R^2 is H, R^3 is absent, the double bond is present, A, B, and E are H, D is methoxy, and Y and Z taken together with the atom to which they are attached form an oxo group]	0.78	0.78	0.39	> 100	0.78	50	0.02	> 100	> 100	0.02	0.02	0.1	0.78	0.78	0.1	0.78	> 100	0.2	> 100	1.56	Antibacterial Activity (MIC's) [10]: 0.78 µg/mL; Antibacterial Activity (MIC's) [11]: > 100 µg/mL
CC[C@H]1OC(=O)[C@H](C)C(=O)[C@H](C)[C@@H](O[C@@H]2O[C@H](C)C[C@H](N(C)C)[C@H]2O)[C@](C)(OC)C[C@@H](C)C2=Nc3cc(C#N)ccc3N3C(=O)O[C@@]1(C)[C@H]3[C@H]2C [Ex 6, Compound of Formula (I): R^1 is methoxy; R^2 is H, R^3 is absent, the double bond is present, A, B, and E are H, D is cyano and Y and Z taken together with the atom to which they are attached form an oxo group]	0.39	0.39	0.39	> 100	0.39	3.1	0.05	> 100	> 100	0.01	0.01	0.05	0.39	0.2	0.05	0.39	> 100	0.39	> 100	0.1	Antibacterial Activity (MIC's) [11]: > 100 µg/mL
